Measured values reported in patent US20260002109A1, “SYSTEMS AND PROCESSES FOR SKIN TISSUE GROWTH AND ANALYSIS” (Outer Biosciences, Inc., priority 2023, published 2026).

Columns and labels:
[1] = system: normal skin tissue in an insert; test: Skin irritation: histopathological scoring of H&E stained skin tissue; format: cell-based; settings: 2% for 24 hours, topical; compared to the control group
Description: (§1) The purpose of this example is to test and replicate dynamic changes in skin across various types of clinically relevant stimuli, including skin irritations, intradermal injection. cosmetic product treatment, and antioxidant defense. Approximations of skin irritation evaluated in this manner include topical chemical treatment 261, burn treatment 262, and UV treatment 263, as illustrated in FIGS. 26A-26C, respectively. Chemical irritation was approximated through application of 2% SDS for 24 hours, burns were approximated through 100° C, contact with a heated metal rod for 45 seconds, and UV irritation was approximated via UVA and UV application for 30 minutes. […] Skin tissues were evaluated and scored using the parameters in Table 9 as provided above. Include protocol, histological parameters, histology staining and scoring results, immune and inflammatory responses, antioxidant defense assessment, etc.
FIGS. 28A-28D provide H&E stained tissues for a first selection of untreated. chemical-treated, burn-treated, and UV-treated skin tissue samples, respectively. A pathological analysis of the extent of damage was undertaken and is shown in FIGS. 29A-29C to evaluate epidermal damage, eczematous epidermis, and epidermis thickness, respectively, after application of damage stimuli. […] UV irradiation caused epidermal thinning compared to the control group.

[2] = system: skin tissues; test: Skin irritation: collagen deposition by histopathological scoring (Masson's Trichrome); format: cell-based; settings: 2% for 24 hours; compared to the untreated group
Description: as §1
A second selection of samples were cultured and subjected to irritating stimuli, whereby a chemical stimulus group was subjected to 2% SDS for 24 hours, a burn group was subjected to 100° C, contact for 90 seconds, and a UV irritation group was subjected to UV-B for 30 minutes. FIGS. 30A-30D illustrate insert images after staining with Masson's Trichrome for untreated, chemical-treated, burn-treated, and UV-treated skin tissues, respectively. […]

[3] = system: skin tissues; test: Skin irritation: lactate dehydrogenase (LDH) release; format: cell-based; settings: 2% SDS for 24 hours; compared to untreated samples
Description: A second selection of samples were cultured and subjected to irritating stimuli, whereby a chemical stimulus group was subjected to 2% SDS for 24 hours, a burn group was subjected to 100° C, contact for 90 seconds, and a UV irritation group was subjected to UV-B for 30 minutes. FIGS. 30A-30D illustrate insert images after staining with Masson's Trichrome for untreated, chemical-treated, burn-treated, and UV-treated skin tissues, respectively. FIG. 31A provides an analysis of collagen deposition using histopathological scoring to determine the effects of damage stimuli on each group. As a result of this analysis, both burn and UV irradiation groups were discovered to have reduced collagen deposition compared to the untreated group. […] FIG. 31B provides an analysis of lactate dehydrogenase (LDH) release, which is widely used as a marker for assessing cell death and toxicity. The analysis indicated a significant increase of LDH release from all treatment conditions compared to untreated samples.

[4] = system: barrier function of the skin; test: Transepidermal water loss (TEWL) measurement on skin biopsies in inserts; format: cell-based; settings: biopsy edges sealed with Loctite super glue
Description: The purpose of this example is to incorporate sealed sensors into an insert. Sealing the biopsy edge using Loctite super glue, as shown in the photograph in FIG. 18A and the histology stain image in FIG. 18B, allowed the measurement of changes in barrier function with sensitivity, as well as preventing leakage of topically-applied substances into the dermis through the edge of the biopsy as well as allowing for the precise measurement of changes in the barrier function of the skin using clinical sensors.
FIGS. 19A-19B illustrate measurements of transepidermal water loss (TEWL) in model skin that were either not sealed or sealed using Loctite super glue, respectively. TEWL measurements were taken using a Courage+Khazaka Multi Probe Adapter MPA 10. […] FIG. 20 show a comparison in TEWL measurements of the effects of a barrier enhancer (Niacinamide) and a barrier disrupter (SDS) on skin sealed with Loctite super glue over a six-day period.

[5] = system: skin tissue; test: Tissue longevity analysis: media conditions judged by histology (epidermis and dermis structure) and culture survival; format: cell-based, human
Description: Table 5 provides a plurality of media mixtures applied to skin samples to assess the effects of various testing conditions on the skin tissue.

SMILES | eczematous epidermis [1] | epidermal damage [1] | thickness of epidermis [1] | collagen deposition [2] | LDH release [3] | barrier function by TEWL [4] | beneficial effect on skin samples ([5]; 0.1 mM on the surface of skin samples) | beneficial effect on skin samples ([5]; 0.5 mM and 1 mM in media)
CCCCCCCCCCCCOS(=O)(=O)[O-].[Na+] [SDS] | moderate eczematous (atopic) epidermis | significant epidermal as evidenced by widespread dyskeratotic cells | pathological epidermal thickening (acanthosis) | No significant change in collagen deposition | highest LDH release | reduction in the barrier function | – | –
[Ca+2].[Cl-].[Cl-] [calcium chloride] | – | – | – | – | – | – | neither testing condition was observed to have any beneficial effect | neither testing condition was observed to have any beneficial effect
